According to PubChem BioAssay (NCI):
Values joined by “and” are separate entries in the source; they are usually repeats but may differ in a detail not shown here. Equal entries are not always repeated.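 48-hour exposure; five concentrations; linearly interpolated endpoints. GI50 marks 50% less growth. TGI: total growth inhibition.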

Experiments:
Test in all cases: DTP human tumour cell line panel, 48 h
[1] = test system: MDA-MB-435
[2] = test system: SK-MEL-28 melanoma
[3] = test system: HS 578T breast
[4] = test system: HOP-62 NSCLC
[5] = test system: SK-MEL-2 melanoma
[6] = test system: NCI-H226 lung
[7] = test system: OVCAR-4 ovarian

## O=C1c2ccccc2-c2c1c1ccccc1c(=O)n2CCNCCCNCCn1c2c(c3ccccc3c1=O)C(=O)c1ccccc1-2
[1]
  GI50: 0.115 µM
  TGI: 1.1 µM
[2]
  GI50: 0.0667 µM
  TGI: > 50 µM
[3]
  GI50: 0.738 µM
  TGI: 2.74 µM
[4]
  GI50: 0.0723 µM
  TGI: 1.16 µM
[5]
  GI50: 0.514 µM
  TGI: 2.2 µM
[6]
  GI50: 0.64 µM
  TGI: 1.66 µM

## COC(=O)C(Cc1ccccc1)N/C=C\C(=O)c1ccc(Cl)cc1 (stereo unspecified)
[1]
  GI50: 14.1 µM
  TGI: 30.8 µM
[2]
  GI50: 45.4 µM
  TGI: > 100 µM
[3]
  GI50: 25 µM
  TGI: 63.8 µM
[4]
  GI50: 25.1 µM
  TGI: 67.6 µM
[5]
  GI50: 59.9 µM
  TGI: > 100 µM
[7]
  GI50: 50.4 µM
  TGI: > 100 µM
[6]
  GI50: 26 µM
  TGI: 77.3 µM

## CC(=O)O[C@H]1C(=O)[C@@]2(C)[C@H]([C@H](OC(=O)c3ccccc3)[C@]3([O-])C[C@H](OC(=O)[C@H]([O-])[C@@H](NC(=O)c4ccccc4)c4ccccc4)C(C)=C1C3(C)C)[C@]1(OC(C)=O)CO[C@@H]1C[C@@H]2[O-].[Fe+3]
[2]
  GI50: 13.2 µM
  TGI: 64.8 µM
[3]
  GI50: 0.0562 µM and 0.141 µM
[4]
  TGI: 10.5 µM and 48.8 µM
[5]
  GI50: 0.11 µM and 0.161 µM
[7]
  GI50: 0.719 µM
  TGI: > 100 µM
[6]
  GI50: 0.227 µM and 0.768 µM
  TGI: 65 µM and 70.7 µM

## C=CC(=O)Nc1cccc(Nc2nc(Nc3ccc(OCCOC)cc3)ncc2F)c1
[1]
  GI50: 2.87 µM
  TGI: 15.7 µM
[2]
  GI50: 5.62 µM
  TGI: 24.4 µM
[3]
  GI50: 1.17 µM
  TGI: 6.97 µM
[4]
  GI50: 2.42 µM
  TGI: 20.7 µM
[5]
  GI50: 1.9 µM
  TGI: 8.65 µM
[7]
  GI50: 0.824 µM
  TGI: 17.1 µM
[6]
  GI50: 0.914 µM
  TGI: 11.6 µM

## Oc1ccc(Cc2ccccc2)c2cccnc12
[1]
  GI50: 1.83 µM
  TGI: > 100 µM
[2]
  GI50: 10.3 µM
  TGI: > 100 µM
[3]
  GI50: > 100 µM
  TGI: > 100 µM
[4]
  GI50: 2.03 µM
  TGI: 80.6 µM
[5]
  GI50: 12.7 µM
  TGI: 70.6 µM
[7]
  GI50: 6.35 µM
  TGI: > 100 µM
[6]
  GI50: 13.8 µM
  TGI: 67.5 µM

## CCCSc1cc(Cl)nc(N)n1
[1]
  GI50: > 100 µM
  TGI: > 100 µM
[2]
  GI50: > 100 µM
  TGI: > 100 µM
[4]
  GI50: > 100 µM
  TGI: > 100 µM
[5]
  GI50: > 100 µM
  TGI: > 100 µM
[7]
  GI50: > 100 µM
  TGI: > 100 µM
[6]
  GI50: > 100 µM
  TGI: > 100 µM

## N#Cc1c(-c2ccccc2)nc2c(c(-c3ccccc3)nn2-c2ccccc2)c1-c1ccc(O)cc1
[1]
  GI50: 1.86 µM
  TGI: 3.71 µM
[2]
  GI50: 1.58 µM
  TGI: 3.05 µM
[3]
  GI50: 1.41 µM
  TGI: 4.46 µM
[4]
  GI50: 2.12 µM
  TGI: 4.49 µM
[5]
  GI50: 2.39 µM
  TGI: 5.65 µM
[7]
  GI50: 1.95 µM
  TGI: 4.66 µM
[6]
  GI50: 1.97 µM
  TGI: 4.51 µM

## CN1CCN(Cc2ccc(NC(=O)c3ccc(C(C)(C)C)c(C#Cc4cnc5cccnn45)c3)cc2C(F)(F)F)CC1
[1]
  GI50: 1.5 µM
  TGI: 2.95 µM
[2]
  GI50: 1.93 µM
  TGI: 3.73 µM
[3]
  GI50: 10.4 µM
  TGI: 39.2 µM
[4]
  GI50: 1.76 µM
  TGI: 3.35 µM
[5]
  GI50: 8.8 µM
  TGI: 22.5 µM
[7]
  GI50: 4.64 µM
  TGI: 19.7 µM
[6]
  GI50: 4.63 µM
  TGI: 20.1 µM

## CCn1c(-c2nonc2N)nc2ccc(F)cc21
[1]
  GI50: > 25 µM
  TGI: > 25 µM
[2]
  GI50: > 25 µM
  TGI: > 25 µM
[3]
  GI50: > 25 µM
  TGI: > 25 µM
[4]
  GI50: > 25 µM
  TGI: > 25 µM
[5]
  GI50: > 25 µM
  TGI: > 25 µM
[7]
  GI50: > 25 µM
  TGI: > 25 µM
[6]
  GI50: > 25 µM
  TGI: > 25 µM

## CCCCCCNc1nc(NCCCCCC)c2[nH]c(NCCCCCC)nc2n1
[1]
  GI50: 8.75 µM
  TGI: 24.9 µM
[2]
  GI50: 12.1 µM
  TGI: 24.6 µM
[3]
  GI50: 1.97 µM
  TGI: 9.84 µM
[4]
  GI50: 18.5 µM
  TGI: 33 µM
[5]
  GI50: 11.5 µM
  TGI: 28.7 µM
[7]
  GI50: 6.97 µM
  TGI: 21.2 µM
[6]
  GI50: 15.4 µM
  TGI: 34.3 µM

## Cn1c(N)nc2c(nc(OCc3ccccc3)n2C2OC(CO)C(O)C2O)c1=O (stereo unspecified)
[1]
  TGI: > 100 µM
[2]
  TGI: > 100 µM
[3]
  TGI: > 100 µM
[4]
  TGI: > 100 µM
[5]
  TGI: > 100 µM
[7]
  TGI: > 100 µM
[6]
  TGI: > 100 µM

## COc1ccccc1C(=O)c1ccc2ccccc2c1
[1]
  TGI: 8.88 µM
[2]
  TGI: > 100 µM
[3]
  TGI: 39.1 µM
[4]
  TGI: > 100 µM
[5]
  TGI: 37.5 µM
[7]
  TGI: > 100 µM
[6]
  TGI: > 100 µM

## Cc1sc(C)c(-c2ccc(CO)o2)c1-c1ccc(CO)o1
[1]
  GI50: > 100 µM
  TGI: > 100 µM
[2]
  GI50: > 100 µM
  TGI: > 100 µM
[3]
  GI50: 43 µM
  TGI: > 100 µM
[4]
  GI50: 0.372 µM
  TGI: > 100 µM
[5]
  GI50: 5.03 µM
  TGI: > 100 µM
[7]
  GI50: 0.299 µM
  TGI: > 100 µM
[6]
  GI50: 0.124 µM
  TGI: 0.388 µM

## CNC(=O)c1ccc(-c2cnc3ncc(Cc4ccc5ncccc5c4)n3n2)cc1F
[1]
  GI50: > 100 µM
  TGI: > 100 µM
[2]
  GI50: > 100 µM
  TGI: > 100 µM
[3]
  GI50: 62.7 µM
  TGI: > 100 µM
[4]
  GI50: 94.3 µM
  TGI: > 100 µM
[5]
  GI50: 97.1 µM
  TGI: > 100 µM
[7]
  GI50: > 100 µM
  TGI: > 100 µM
[6]
  GI50: 34.6 µM
  TGI: > 100 µM

## CS(=O)(=O)Nc1ccc(-c2ccc3c(NC(=O)C4CC4)n[nH]c3c2)cc1
[1]
  GI50: > 25 µM
  TGI: > 25 µM
[2]
  GI50: > 25 µM
  TGI: > 25 µM
[3]
  GI50: 24.4 µM
  TGI: > 25 µM
[4]
  GI50: > 25 µM
  TGI: > 25 µM
[5]
  GI50: > 18.5 µM
  TGI: > 25 µM
[7]
  GI50: 7.2 µM
  TGI: > 25 µM
[6]
  GI50: > 14.9 µM
  TGI: > 25 µM

## Cc1ccc2/c(=C/c3ccc(N(C)C)cc3)c3cc(-c4ccccc4)[n+](C)n3c2c1
[1]
  GI50: 0.037 µM
  TGI: 1.66 µM
[2]
  GI50: 0.146 µM
  TGI: 3.7 µM
[3]
  GI50: 0.035 µM
  TGI: 2.89 µM
[4]
  GI50: 0.257 µM
  TGI: 7.33 µM
[7]
  GI50: 0.816 µM
  TGI: 20.2 µM

## CNc1nc(NC2CCCC2)nc(Sc2ccc(OC)cc2)n1
[1]
  GI50: > 10 µM
  TGI: > 10 µM
[2]
  GI50: > 10 µM
  TGI: > 10 µM
[3]
  GI50: > 10 µM
  TGI: > 10 µM
[4]
  GI50: > 10 µM
  TGI: > 10 µM
[5]
  GI50: > 10 µM
  TGI: > 10 µM
[7]
  GI50: > 10 µM
  TGI: > 10 µM
[6]
  GI50: > 10 µM
  TGI: > 10 µM
